Test results as given in the supplement of paper PMC9780213.

Key:
Details in all cases: treatment time: 24 h
[1] = system: U2OS-LMNB1-TUBA1B-ACTB; assay: cell count relative to DMSO control (panel C1, DRAQ5/ER stain) (fraction of control); higher = more cells (less toxicity)
Description: (§1)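 U2OS-derived cells in 384-well plates were treated for 24 h with a 7-point 2-fold dilution series (top dose 20 µM for most compounds; final max DMSO 1%), then fixed, stained in four marker panels and imaged on a Cellomics ArrayScan. Cell count per treatment (three replicate plates merged) is given as a fraction of DMSO control. Panel A used parental U2OS, panel B U2OS-mOrange2-Peroxisome, panel C1 U2OS-LMNB1-TUBA1B-ACTB (DRAQ5 nuclei).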

[2] = system: U2OS-mOrange2-Peroxisome; assay: cell count relative to DMSO control (panel B, lysosome/peroxisome/lipid stain) (fraction of control); higher = more cells (less toxicity)
Description: as §1

[3] = system: U2OS; assay: cell count relative to DMSO control (panel A, nuclei/RNA/PMG/mitochondria stain) (fraction of control); higher = more cells (less toxicity)
Description: as §1

Row | SMILES | cell count ([1]; 0.3125 µM) | cell count ([1]; 0.625 µM) | cell count ([1]; 1.25 µM) | cell count ([1]; 2.5 µM) | cell count ([1]; 5 µM) | cell count ([1]; 10 µM) | cell count ([1]; 20 µM) | cell count ([2]; 0.3125 µM) | cell count ([2]; 0.625 µM) | cell count ([2]; 1.25 µM) | cell count ([2]; 2.5 µM) | cell count ([2]; 5 µM) | cell count ([2]; 10 µM) | cell count ([2]; 20 µM) | cell count ([3]; 0.3125 µM) | cell count ([3]; 0.625 µM) | cell count ([3]; 1.25 µM) | cell count ([3]; 2.5 µM) | cell count ([3]; 5 µM) | cell count ([3]; 10 µM) | cell count ([3]; 20 µM) | cell count ([1]; 0.15625 µM) | cell count ([2]; 0.15625 µM) | cell count ([3]; 0.15625 µM)
1 | CC[C@@]1([C@@H]2O[C@@H]([C@H]3O[C@@](O)(CO)[C@H](C)C[C@@H]3C)C[C@@H]2C)CC[C@H]([C@]2(C)CC[C@]3(C[C@H](O)[C@@H](C)[C@@H]([C@@H](C)[C@@H](OC)[C@H](C)C(=O)O)O3)O2)O1 [monensin] | 0.932 | 0.699 | 0.642 | 0.412 | 0.421 | 0.406 | 0.418 | 0.691 | 0.713 | 0.78 | 0.617 | 0.617 | 0.641 | 0.633 | 0.746 | 0.606 | 0.504 | 0.422 | 0.375 | 0.339 | 0.332 |  |  | 
2 | Cc1ccc(S(=O)(=O)c2ccc([N+](=O)[O-])o2)cc1 | 1.1 | 1.02 | 1.12 | 1.1 | 1.02 | 0.982 |  | 0.934 | 0.938 | 0.864 | 1.16 | 0.964 | 0.837 |  | 0.974 | 1.04 | 1.05 | 1.01 | 0.917 | 0.886 |  | 1.01 | 0.927 | 1.02
3 | CN(C)[C@@H]1C(O)=C(C(N)=O)C(=O)[C@@]2(O)C(O)=C3C(=O)c4c(O)ccc(Cl)c4[C@@](C)(O)[C@H]3C[C@@H]12 [chlortetracycline] | 1.15 | 1.12 | 1.1 | 0.983 | 0.989 | 1.07 | 0.897 | 0.886 | 0.771 | 0.779 | 0.944 | 1.01 | 0.62 | 0.486 | 1.12 | 1.07 | 1.08 | 1.06 | 1.02 | 0.933 | 0.783 |  |  | 
4 | Cc1c(N)nc([C@H](CC(N)=O)NC[C@H](N)C(N)=O)nc1C(=O)N[C@H](C(=O)N[C@H](C)[C@@H](O)[C@H](C)C(=O)N[C@H](C(=O)NCCc1nc(-c2nc(C(=O)NCCC[S+](C)C)cs2)cs1)[C@@H](C)O)[C@@H](O[C@@H]1O[C@@H](CO)[C@@H](O)[C@H](O)[C@@H]1O[C@H]1O[C@H](CO)[C@@H](O)[C@H](OC(N)=O)[C@@H]1O)c1c[nH]cn1 [bleomycin] | 0.845 | 0.893 | 0.934 | 1.02 | 0.88 | 0.909 | 0.887 | 1.36 | 1.16 | 1.31 | 1.26 | 1.32 | 1.25 | 1.34 | 0.746 | 0.849 | 0.8 | 0.933 | 0.701 | 0.817 | 0.794 |  |  | 
5 | CN1CCC(c2c(O)cc(O)c3c(=O)cc(-c4ccccc4Cl)oc23)[C@@H](O)C1 (some centres not stated) [alvocidib] | 0.864 | 0.789 | 0.569 | 0.314 | 0.253 | 0.239 | 0.257 | 1.61 | 1.52 | 1.18 | 1.24 | 1.29 | 0.687 | 0.372 | 0.804 | 0.575 | 0.44 | 0.221 | 0.142 | 0.14 | 0.153 |  |  | 
6 | C[C@H]1CCC/C=C/[C@@H]2C[C@H](O)C[C@H]2[C@H](O)/C=C/C(=O)O1 [brefeldin-a] | 0.698 | 0.697 | 0.661 | 0.616 | 0.632 | 0.584 | 0.529 | 0.53 | 0.567 | 0.55 | 0.574 | 0.515 | 0.544 | 0.557 | 0.543 | 0.545 | 0.527 | 0.584 | 0.586 | 0.644 | 0.577 |  |  | 
7 | Cc1c2oc3c(C)ccc(C(=O)N[C@@H]4C(=O)N[C@H](C(C)C)C(=O)N5CCC[C@H]5C(=O)N(C)CC(=O)N(C)[C@@H](C(C)C)C(=O)O[C@@H]4C)c3nc-2c(C(=O)N[C@@H]2C(=O)N[C@H](C(C)C)C(=O)N3CCC[C@H]3C(=O)N(C)CC(=O)N(C)[C@@H](C(C)C)C(=O)O[C@@H]2C)c(N)c1=O [dactinomycin] | 1.05 | 1.09 | 1 | 0.993 | 0.824 | 0.661 | 0.418 | 1.08 | 1.07 | 1.01 | 0.743 | 0.663 | 0.243 | 0.139 | 0.928 | 0.89 | 0.807 | 0.741 | 0.73 | 0.381 | 0.229 |  |  | 
